In US9737535B2, “Methods for treating cancer using TOR kinase inhibitor combination therapy comprising administering substituted pyrazino[2,3-b]pyrazines” (Signal Pharmaceuticals, LLC, priority 2014, dated 2017):

Key:
T47-D = test: Anti-proliferation assay with +JQ1, Chalice synergy score; type: cell-based, human; conditions: combination with +JQ1, average
Description: (§1) Cells were thawed from a liquid nitrogen preserved state.
(§2) The calculation for synergy score is provided below.
(§3) If T≧V0:100*[1−(T−V0)/(V−V0)]
(§4) Cells were grown, treated and analyzed as described above, and synergy was calculated using the Chalice Software (Zalicus, Inc., Cambridge Mass.), described above. Cell lines used included T47D (human ductal breast epithelial tumor cell line), MCF (adenocarcinoma breast cancer cell line), MDA-MM468 (adenocarcinoma breast cancer cell line), HCC-70 (carcinoma, ductal breast cancer cell line), SKBR-3 (adenocarcinoma breast cancer cell line), MM-453 (adenocarcinoma breast cancer cell line).

[1] = test system: breast cancer cell line panel; test: Anti-proliferation assay, seventeen breast cancer cell line panel; type: cell-based; conditions: single agent, cell lines where the GI50 reached inhibition levels of greater than fifty percent, read-out: median GI50
Source text: Cells were thawed from a liquid nitrogen preserved state. […] After seventy-two hours, […] developed for endpoint analysis using ATPLite. […] The calculation for synergy score is provided below. […] Compound 1 had varying activity across the seventeen cell line panel.

MCF-7 = test: Anti-proliferation assay with +JQ1, Chalice synergy score; type: cell-based; conditions: combination with +JQ1, average
Description: as §1, §2, §3, §4

MM-468 = test: as above; type: cell-based; conditions: combination with +JQ1, average
Description: as §1, §2, §3, §4

MM-453 = test: as above; type: cell-based; conditions: combination with +JQ1, average
Description: as §1, §2, §3, §4

SKBR-3 = test: as above; type: cell-based; conditions: combination with +JQ1, average
Description: as §1, §2, §3, §4

HCC-70 = test: as above; type: cell-based; conditions: combination with +JQ1, average
Description: as §1, §2, §3, §4

[2] = test system: cancer cell lines (T47D, MCF, MDA-MM468, HCC-70, SKBR-3, MM-453); test: Anti-proliferation assay with +JQ1, cancer cell lines overall; type: cell-based; conditions: treatment with +JQ1
Description: as §4

[3] = test system: caspase 3/7 activation in NCI-H441 cells; test: Caspase-Glo 3/7 assay; type: cell-based; conditions: 24 hours post-treatment, normalized to DMSO control, combination at 1:1
Description: Cell lines were maintained in the growth medium recommended by ATCC (American Type Culture Collection). […] The compounds were serially diluted in DMSO from the highest concentration of 30 μM (single compounds and in combination with constant a constant ratio of 1:1). […] The percentage of induction of apoptosis was normalized to DMSO control (no compound).

Structure (SMILES)	Chalice Calculated Synergy Scores, Averages (T47-D)	GI50 [1]	Chalice Calculated Synergy Scores, Averages (MCF-7)	Chalice Calculated Synergy Scores, Averages (MM-468)	Chalice Calculated Synergy Scores, Averages (MM-453)	Chalice Calculated Synergy Scores, Averages (SKBR-3)	Chalice Calculated Synergy Scores, Averages (HCC-70)	Synergism [2]	% Caspase activation Mean (n = 3) ([3]; 0.1 μM)	% Caspase activation Mean (n = 3) ([3]; 0.3 μM)	% Caspase activation Mean (n = 3) ([3]; 1 μM)	% Caspase activation Mean (n = 3) ([3]; 3 μM)	% Caspase activation Mean (n = 3) ([3]; 10 μM)	% Caspase activation Mean (n = 3) ([3]; 30 μM)
CCN1C(=O)CNc2ncc(-c3ccc(-c4nc[nH]n4)nc3C)nc21 [Compound 1, 1-ethyl-7-(2-methyl-6-(1H-1,2,4-triazol-3-yl)pyridin-3-yl)-3,4-dihydropyrazino[2,3-b]pyrazin-2(1H)-one]	8.74	140 nM	7.37	17.26	16.37	9.59	12.05	Synergism was observed						
CO[C@H]1CC[C@H](N2C(=O)CNc3ncc(-c4ccc(C(C)(C)O)nc4)nc32)CC1 [Compound 2, 7-(6-(2-hydroxypropan-2-yl)pyridin-3-yl)-1-((1r,4r)-4-methoxycyclohexyl)-3,4-dihydropyrazino-[2,3-b]pyrazin-2(1H)-one]	4.02		2.07	11.58	7.03	6.14	5.98	Synergism was observed	69.9%	66.4%	67.7%	77.7%	80%	85.5%
